In ChEMBL document CHEMBL1151757, “Synthesis, radiosynthesis, and biological evaluation of fluorine-18-labeled 2beta-carbo(fluoroalkoxy)-3beta-(3'-((Z)-2-haloethenyl)phenyl)nortropanes: candidate radioligands for in vivo imaging of the serotonin transporter with positron emission tomography” (J Med Chem, 2008):

What was measured:
[1] = Ratio of drug uptake in frontal lobe to cerebellum in awake rhesus monkey after 2.8 mins postinjection; assay type: ADME, organism-based, Macaca mulatta; conditions: in vivo, 168 s
[2] = Drug uptake in awake rhesus monkey midbrain after 1.8 mins postinjection; assay type: ADME, organism-based, Macaca mulatta; conditions: in vivo, 0.03 h
[3] = Drug uptake in awake rhesus monkey occipital lobe after 65 mins postinjection; assay type: ADME, organism-based, Macaca mulatta; conditions: in vivo
[4] = target: Sodium-dependent serotonin transporter (Homo sapiens, UniProt P31645); experiment: Displacement of [3H](R,S)citalopram.HBr from human SERT transfected in human HEK293 cells; assay type: cell-based
[5] = Drug uptake in awake rhesus monkey thalamus after 0.3 mins postinjection; assay type: ADME, organism-based, Macaca mulatta; conditions: in vivo, 0.005 h
[6] = Ratio of drug uptake in thalamus to cerebellum in awake rhesus monkey after 115 mins postinjection; assay type: ADME, organism-based, Macaca mulatta; conditions: in vivo
[7] = Drug uptake in awake rhesus monkey occipital lobe after 85 mins postinjection; assay type: ADME, organism-based, Macaca mulatta; conditions: in vivo
[8] = Ratio of drug uptake in occipital lobe to cerebellum in awake rhesus monkey after 10.5 mins postinjection; assay type: ADME, organism-based, Macaca mulatta; conditions: in vivo, 0.175 h
[9] = Ratio of drug uptake in medulla to cerebellum in anesthetized cynomolgus monkey after 235 mins postinjection; assay type: ADME, organism-based, Macaca fascicularis; conditions: in vivo
[10] = Drug uptake in awake rhesus monkey medulla after 0.8 mins postinjection; assay type: ADME, organism-based, Macaca mulatta, Medulla of organ; conditions: in vivo, 48 s
[11] = Drug uptake in awake rhesus monkey cerebellum after 1.3 mins postinjection; assay type: ADME, organism-based, Macaca mulatta; conditions: in vivo, 78 s
[12] = Ratio of drug uptake in pons to cerebellum in awake rhesus monkey after 55 mins postinjection; assay type: ADME, organism-based, Macaca mulatta; conditions: in vivo
[13] = Drug uptake in awake rhesus monkey midbrain after 1.3 mins postinjection; assay type: ADME, organism-based, Macaca mulatta; conditions: in vivo, 78 s
[14] = Drug uptake in awake rhesus monkey thalamus after 2.8 mins postinjection; assay type: ADME, organism-based, Macaca mulatta; conditions: in vivo, 168 s
[15] = Drug uptake in awake rhesus monkey midbrain after 0.3 mins postinjection; assay type: ADME, organism-based, Macaca mulatta; conditions: in vivo, 0.005 h
[16] = Ratio of drug uptake in pons to cerebellum in awake rhesus monkey after 105 mins postinjection; assay type: ADME, organism-based, Macaca mulatta; conditions: in vivo, 1.75 h
[17] = Drug uptake in awake rhesus monkey frontal lobe after 2.8 mins postinjection; assay type: ADME, organism-based, Macaca mulatta; conditions: in vivo, 168 s
[18] = Ratio of drug uptake in pons to cerebellum in anesthetized cynomolgus monkey after 205 mins postinjection; assay type: ADME, organism-based, Macaca fascicularis; conditions: in vivo
[19] = Drug uptake in awake rhesus monkey occipital lobe after 55 mins postinjection; assay type: ADME, organism-based, Macaca mulatta; conditions: in vivo
[20] = Ratio of drug uptake in midbrain to cerebellum in awake rhesus monkey after 115 mins postinjection; assay type: ADME, organism-based, Macaca mulatta; conditions: in vivo
[21] = Ratio of drug uptake in occipital lobe to cerebellum in awake rhesus monkey after 0.8 mins postinjection; assay type: ADME, organism-based, Macaca mulatta; conditions: in vivo, 48 s
[22] = Ratio of drug uptake in midbrain to cerebellum in awake rhesus monkey after 45 mins postinjection; assay type: ADME, organism-based, Macaca mulatta; conditions: in vivo, 0.75 h
[23] = Drug uptake in awake rhesus monkey caudate after 2.8 mins postinjection; assay type: ADME, organism-based, Macaca mulatta, Caudate nucleus; conditions: in vivo, 168 s
[24] = Ratio of drug uptake in pons to cerebellum in awake rhesus monkey after 2.8 mins postinjection; assay type: ADME, organism-based, Macaca mulatta; conditions: in vivo, 168 s
[25] = target: Sodium-dependent dopamine transporter (Homo sapiens, UniProt Q01959); experiment: Displacement of [3H]RTI-55 from human DAT transfected in human HEK293 cells; assay type: cell-based
[26] = Drug uptake in awake rhesus monkey cerebellum after 0.3 mins postinjection; assay type: ADME, organism-based, Macaca mulatta; conditions: in vivo, 0.005 h
[27] = Drug uptake in awake rhesus monkey frontal lobe after 1.3 mins postinjection; assay type: ADME, organism-based, Macaca mulatta; conditions: in vivo, 78 s
[28] = Drug uptake in awake rhesus monkey occipital lobe after 2.3 mins postinjection; assay type: ADME, organism-based, Macaca mulatta; conditions: in vivo, 138 s
[29] = Ratio of drug uptake in occipital lobe to cerebellum in awake rhesus monkey after 65 mins postinjection; assay type: ADME, organism-based, Macaca mulatta; conditions: in vivo
[30] = Ratio of drug uptake in pons to cerebellum in awake rhesus monkey after 0.3 mins postinjection; assay type: ADME, organism-based, Macaca mulatta; conditions: in vivo, 0.005 h
[31] = Ratio of drug uptake in pons to cerebellum in awake rhesus monkey after 0.8 mins postinjection; assay type: ADME, organism-based, Macaca mulatta; conditions: in vivo, 48 s
[32] = Ratio of drug uptake in occipital lobe to cerebellum in awake rhesus monkey after 4.5 mins postinjection; assay type: ADME, organism-based, Macaca mulatta; conditions: in vivo, 0.075 h
[33] = Ratio of drug uptake in occipital lobe to cerebellum in awake rhesus monkey after 13.5 mins postinjection; assay type: ADME, organism-based, Macaca mulatta; conditions: in vivo, 0.225 h
[34] = Ratio of drug uptake in thalamus to cerebellum in awake rhesus monkey after 2.8 mins postinjection; assay type: ADME, organism-based, Macaca mulatta; conditions: in vivo, 168 s
[35] = Ratio of drug uptake in midbrain to cerebellum in awake rhesus monkey after 4.5 mins postinjection; assay type: ADME, organism-based, Macaca mulatta; conditions: in vivo, 0.075 h
[36] = Drug uptake in awake rhesus monkey caudate after 0.8 mins postinjection; assay type: ADME, organism-based, Macaca mulatta, Caudate nucleus; conditions: in vivo, 48 s
[37] = Drug uptake in anesthetized cynomolgus monkey brain occipital lobe after 187.5 mins postinjection; assay type: ADME, organism-based, Macaca fascicularis; conditions: in vivo, 3.125 h
[38] = Drug uptake in anesthetized cynomolgus monkey brain frontal lobe after 202.5 mins postinjection; assay type: ADME, organism-based, Macaca fascicularis; conditions: in vivo, 3.375 h
[39] = Drug uptake in anesthetized cynomolgus monkey brain occipital lobe after 207.5 mins postinjection; assay type: ADME, organism-based, Macaca fascicularis; conditions: in vivo
[40] = Ratio of drug uptake in medulla to cerebellum in awake rhesus monkey after 25 mins postinjection; assay type: ADME, organism-based, Macaca mulatta; conditions: in vivo
[41] = Drug uptake in awake rhesus monkey brain putamen after 1.25 mins postinjection; assay type: ADME, organism-based, Macaca mulatta; conditions: in vivo, 75 s
[42] = Drug uptake in awake rhesus monkey brain cerebellum after 115 mins postinjection; assay type: ADME, organism-based, Macaca mulatta; conditions: in vivo
[43] = Protein binding in anesthetized cynomolgus monkey plasma after 15 mins postinjection; assay type: ADME, organism-based, Macaca fascicularis; conditions: read-out: PPB (converted)
[44] = Ratio of drug uptake in frontal lobe to cerebellum in awake rhesus monkey after 55 mins postinjection; assay type: ADME, organism-based, Macaca mulatta; conditions: in vivo
[45] = Drug uptake in awake rhesus monkey brain pons after 13.5 mins postinjection; assay type: ADME, organism-based, Macaca mulatta; conditions: in vivo, 0.225 h
[46] = Protein binding in anesthetized cynomolgus monkey plasma after 60 mins postinjection; assay type: ADME, organism-based, Macaca fascicularis; conditions: read-out: PPB (converted)
[47] = Ratio of drug uptake in thalamus to cerebellum in awake rhesus monkey after 75 mins postinjection; assay type: ADME, organism-based, Macaca mulatta; conditions: in vivo, 1.25 h
[48] = Protein binding in anesthetized cynomolgus monkey plasma after 180 mins postinjection; assay type: ADME, organism-based, Macaca fascicularis; conditions: read-out: PPB (converted)
[49] = Drug uptake in awake rhesus monkey brain pons after 1.25 mins postinjection; assay type: ADME, organism-based, Macaca mulatta; conditions: in vivo, 75 s
[50] = Ratio of drug uptake in caudate to cerebellum in awake rhesus monkey after 105 mins postinjection; assay type: ADME, organism-based, Macaca mulatta; conditions: in vivo, 1.75 h
[51] = Protein binding in anesthetized cynomolgus monkey plasma after 5 mins postinjection; assay type: ADME, organism-based, Macaca fascicularis; conditions: read-out: PPB (converted)
[52] = Drug uptake in awake rhesus monkey brain medulla after 17.5 mins postinjection; assay type: ADME, organism-based, Macaca mulatta; conditions: in vivo
[53] = Ratio of drug uptake in medulla to cerebellum in awake rhesus monkey after 85 mins postinjection; assay type: ADME, organism-based, Macaca mulatta; conditions: in vivo
[54] = Ratio of drug uptake in thalamus to cerebellum in awake rhesus monkey after 10.5 mins postinjection; assay type: ADME, organism-based, Macaca mulatta; conditions: in vivo, 0.175 h
[55] = Metabolic stability in anesthetized cynomolgus monkey plasma after 1 min postinjection; assay type: ADME, organism-based, Macaca fascicularis; conditions: read-out: Stability
[56] = Ratio of drug uptake in caudate to cerebellum in awake rhesus monkey after 17.5 mins postinjection; assay type: ADME, organism-based, Macaca mulatta; conditions: in vivo
[57] = Drug uptake in awake rhesus monkey brain caudate after 1.25 mins postinjection; assay type: ADME, organism-based, Macaca mulatta, Caudate nucleus; conditions: in vivo, 75 s
[58] = Protein binding in anesthetized cynomolgus monkey plasma after 120 mins postinjection; assay type: ADME, organism-based, Macaca fascicularis; conditions: read-out: PPB (converted)
[59] = Ratio of drug uptake in thalamus to cerebellum in awake rhesus monkey after 35 mins postinjection; assay type: ADME, organism-based, Macaca mulatta; conditions: in vivo
[60] = Protein binding in anesthetized cynomolgus monkey plasma after 30 mins postinjection; assay type: ADME, organism-based, Macaca fascicularis; conditions: read-out: PPB (converted)
[61] = Ratio of drug uptake in caudate to cerebellum in awake rhesus monkey after 13.5 mins postinjection; assay type: ADME, organism-based, Macaca mulatta; conditions: in vivo, 0.225 h
[62] = Drug uptake in awake rhesus monkey brain frontal lobe after 1.75 mins postinjection; assay type: ADME, organism-based, Macaca mulatta; conditions: in vivo, 105 s
[63] = Ratio of drug uptake in medulla to cerebellum in awake rhesus monkey after 45 mins postinjection; assay type: ADME, organism-based, Macaca mulatta; conditions: in vivo, 0.75 h
[64] = Drug uptake in awake rhesus monkey brain pons after 4.5 mins postinjection; assay type: ADME, organism-based, Macaca mulatta; conditions: in vivo, 0.075 h

Sequence of Sodium-dependent serotonin transporter (P31645 whole entry): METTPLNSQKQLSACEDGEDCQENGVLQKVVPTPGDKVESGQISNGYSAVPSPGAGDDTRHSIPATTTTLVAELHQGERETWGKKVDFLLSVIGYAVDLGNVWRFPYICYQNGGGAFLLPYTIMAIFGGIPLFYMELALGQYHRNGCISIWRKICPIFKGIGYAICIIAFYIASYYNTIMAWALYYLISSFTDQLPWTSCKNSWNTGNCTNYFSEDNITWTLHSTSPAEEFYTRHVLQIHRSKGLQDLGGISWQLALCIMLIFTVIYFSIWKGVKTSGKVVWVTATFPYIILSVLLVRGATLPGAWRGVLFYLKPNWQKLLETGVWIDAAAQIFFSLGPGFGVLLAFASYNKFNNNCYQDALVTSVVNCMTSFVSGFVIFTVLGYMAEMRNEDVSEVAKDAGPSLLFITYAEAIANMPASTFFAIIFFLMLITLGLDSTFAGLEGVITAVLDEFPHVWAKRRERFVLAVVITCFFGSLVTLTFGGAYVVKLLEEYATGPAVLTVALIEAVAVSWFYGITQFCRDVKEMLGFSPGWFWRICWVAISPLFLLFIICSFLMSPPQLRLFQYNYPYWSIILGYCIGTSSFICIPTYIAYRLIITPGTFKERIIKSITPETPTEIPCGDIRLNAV
Sequence of Sodium-dependent dopamine transporter (Q01959 whole entry): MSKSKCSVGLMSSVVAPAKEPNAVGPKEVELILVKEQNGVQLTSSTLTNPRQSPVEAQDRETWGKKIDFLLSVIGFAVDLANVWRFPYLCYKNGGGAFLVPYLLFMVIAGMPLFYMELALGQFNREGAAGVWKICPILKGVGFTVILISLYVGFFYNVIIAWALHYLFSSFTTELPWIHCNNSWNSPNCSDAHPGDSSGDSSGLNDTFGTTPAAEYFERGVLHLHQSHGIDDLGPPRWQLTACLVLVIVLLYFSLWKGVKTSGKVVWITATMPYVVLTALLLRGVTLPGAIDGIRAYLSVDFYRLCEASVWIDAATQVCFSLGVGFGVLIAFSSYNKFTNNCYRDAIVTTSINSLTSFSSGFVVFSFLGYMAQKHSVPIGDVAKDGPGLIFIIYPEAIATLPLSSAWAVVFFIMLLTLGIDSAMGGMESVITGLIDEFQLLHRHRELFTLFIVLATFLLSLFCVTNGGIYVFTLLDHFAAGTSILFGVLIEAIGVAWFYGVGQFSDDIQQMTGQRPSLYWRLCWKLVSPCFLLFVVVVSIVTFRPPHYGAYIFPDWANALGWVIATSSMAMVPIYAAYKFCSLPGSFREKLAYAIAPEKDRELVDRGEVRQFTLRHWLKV

Molecule O=C(OCC[18F])C1C2CCC(CC1c1ccc(/C=C\I)cc1)N2 (centres undefined) has a Ratio [1] of 0.9, a Drug uptake [2] of 0.25 and a Drug uptake [3] of 2.71. For the same molecule, the Ki [4] was 0.08 nM, the Drug uptake [5] was 0 and the Ratio [6] was 2.6. For the same molecule, the Drug uptake [7] was 2.74, the Ratio [8] was 0.9 and the Ratio [9] was 3.3. The Drug uptake [10] was 0, the Drug uptake [11] was 0.06 and the Ratio [12] was 1.3. It also gave a Drug uptake [13] of 0.05, a Drug uptake [14] of 0.65 and a Drug uptake [15] of 0.08. It also gave a Ratio [16] of 1.8, a Drug uptake [17] of 0.47 and a Ratio [18] of 2.7. For the same molecule, the Drug uptake [19] was 2.73, the Ratio [20] was 2.5 and the Ratio [21] was 1.9. The Ratio [22] was 1.3, the Drug uptake [23] was 0.53 and the Ratio [24] was 1. The Ki [25] was 13 nM, the Drug uptake [26] was 0.01 and the Drug uptake [27] was 0.05. It also gave a Drug uptake [28] of 0.36, a Ratio [29] of 1.6 and a Ratio [30] of 0. For the same molecule, the Ratio [31] was 4.8, the Ratio [32] was 0.9 and the Ratio [33] was 1. It also gave a Ratio [34] of 1.3, a Ratio [35] of 1 and a Drug uptake [36] of 0.

With O=C(OCCC[18F])C1C2CCC(CC1c1cccc(/C=C\Br)c1)N2 (centres undefined) the Drug uptake [37] was 3.05, the Drug uptake [38] was 2.23 and the Drug uptake [39] was 2.68.

Work on O=C(OCC[18F])C1C2CCC(CC1c1cccc(/C=C\I)c1)N2 (centres undefined) yielded a Ratio [40] of 1, a Drug uptake [41] of 0.01 and a Drug uptake [42] of 0.08. It also gave a fraction unbound at 0.25 h [43] of 0.932, a Ratio [44] of 1 and a Drug uptake [45] of 0.08. It also gave a fraction unbound at 1 h [46] of 0.915, a Ratio [47] of 1.5 and a fraction unbound at 3 h [48] of 0.915. For the same molecule, the Drug uptake [49] was 0.01, the Ratio [50] was 1.4 and the fraction unbound at 5 min [51] was 0.925. The Drug uptake [52] was 0.1, the Ratio [53] was 1.1 and the Ratio [54] was 1.4. For the same molecule, the remaining at 1 min [55] was 93%, the Ratio [56] was 1.2 and the Drug uptake [57] was 0.01. The fraction unbound at 2 h [58] was 0.934, the Ratio [59] was 1.4 and the fraction unbound at 0.5 h [60] was 0.916. For the same molecule, the Ratio [61] was 1.1, the Drug uptake [62] was 0.02 and the Ratio [63] was 1. It also gave a Drug uptake [64] of 0.05.
